pEC50, pIC50: −log10 of the molar value.
Assays:
[1] = biological target: T1, fructose1,6-diphosphatase (FBPase); experiment: Malachite Green phosphate-release assay with D-fructose-1,6-diphosphate; type: biochemical
T1 construct: gene FBP1

[2] = biological target: T2, glycogen phosphorylase (GPPase) (Oryctolagus cuniculus, UniProt P00489); experiment: phosphoglucomutase/G6PDH-coupled spectrophotometric activity assay with glycogen; activation; type: biochemical
T2 construct: gene PYGM
T2 sequence (P00489 2-843): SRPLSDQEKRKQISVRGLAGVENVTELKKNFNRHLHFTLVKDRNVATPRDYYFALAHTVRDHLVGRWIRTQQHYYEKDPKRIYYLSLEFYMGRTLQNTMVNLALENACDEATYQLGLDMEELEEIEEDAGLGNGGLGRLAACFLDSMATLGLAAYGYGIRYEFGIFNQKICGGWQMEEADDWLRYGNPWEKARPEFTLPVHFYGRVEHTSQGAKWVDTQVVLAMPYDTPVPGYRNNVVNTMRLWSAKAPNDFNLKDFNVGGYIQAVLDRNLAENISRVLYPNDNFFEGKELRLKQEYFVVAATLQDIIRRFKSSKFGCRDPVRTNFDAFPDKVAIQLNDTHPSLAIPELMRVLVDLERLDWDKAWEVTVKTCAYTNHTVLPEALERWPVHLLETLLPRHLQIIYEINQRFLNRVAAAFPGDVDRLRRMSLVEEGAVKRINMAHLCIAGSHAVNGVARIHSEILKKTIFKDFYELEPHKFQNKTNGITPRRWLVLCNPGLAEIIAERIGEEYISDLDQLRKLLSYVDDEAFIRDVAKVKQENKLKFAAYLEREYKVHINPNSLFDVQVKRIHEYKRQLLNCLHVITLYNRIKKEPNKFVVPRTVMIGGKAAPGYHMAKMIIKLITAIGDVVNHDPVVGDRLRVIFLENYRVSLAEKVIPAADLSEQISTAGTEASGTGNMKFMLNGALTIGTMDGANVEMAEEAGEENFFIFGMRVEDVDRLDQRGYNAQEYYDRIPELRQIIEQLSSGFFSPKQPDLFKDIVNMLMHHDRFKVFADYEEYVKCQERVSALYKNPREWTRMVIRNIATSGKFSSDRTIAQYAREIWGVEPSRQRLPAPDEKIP

pIC50 [1]: 5.80 | pEC50 [2]: 4.73
SMILES: Nc1ncnc2c1ncn2[C@@H]1O[C@H](COP(=O)(O)O)[C@@H](O)[C@H]1O [AMP]

From publication PMC3398342, “Cyanidin-3-O-β-glucoside regulates fatty acid metabolism via an AMP-activated protein kinase-dependent signaling pathway in human HepG2 cells” (2012)
